Paper PMC3291806 (2011)

Molecular target: gamma-aminobutyric acid type A (GABAA) receptor α1(L264T)β2γ2L (Homo sapiens, UniProt P14867+P47870, P14867:L291T)
Assay: cell-based

gamma-aminobutyric acid type A (GABAA) receptor α1(L264T)β2γ2L, sequence (P14867 28-456 L291T): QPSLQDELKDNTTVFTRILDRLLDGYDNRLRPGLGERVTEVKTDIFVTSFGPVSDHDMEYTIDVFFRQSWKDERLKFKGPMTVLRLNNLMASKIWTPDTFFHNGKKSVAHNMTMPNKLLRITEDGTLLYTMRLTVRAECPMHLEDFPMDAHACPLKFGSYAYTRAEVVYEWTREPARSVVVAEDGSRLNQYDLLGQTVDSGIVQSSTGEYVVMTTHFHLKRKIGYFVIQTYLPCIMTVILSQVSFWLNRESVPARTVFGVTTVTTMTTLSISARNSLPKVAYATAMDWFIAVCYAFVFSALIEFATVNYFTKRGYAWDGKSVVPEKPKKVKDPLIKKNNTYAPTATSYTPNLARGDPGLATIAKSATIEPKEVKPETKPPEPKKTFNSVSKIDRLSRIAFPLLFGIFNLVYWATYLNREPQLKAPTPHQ
gamma-aminobutyric acid type A (GABAA) receptor α1(L264T)β2γ2L, sequence (P47870 26-512): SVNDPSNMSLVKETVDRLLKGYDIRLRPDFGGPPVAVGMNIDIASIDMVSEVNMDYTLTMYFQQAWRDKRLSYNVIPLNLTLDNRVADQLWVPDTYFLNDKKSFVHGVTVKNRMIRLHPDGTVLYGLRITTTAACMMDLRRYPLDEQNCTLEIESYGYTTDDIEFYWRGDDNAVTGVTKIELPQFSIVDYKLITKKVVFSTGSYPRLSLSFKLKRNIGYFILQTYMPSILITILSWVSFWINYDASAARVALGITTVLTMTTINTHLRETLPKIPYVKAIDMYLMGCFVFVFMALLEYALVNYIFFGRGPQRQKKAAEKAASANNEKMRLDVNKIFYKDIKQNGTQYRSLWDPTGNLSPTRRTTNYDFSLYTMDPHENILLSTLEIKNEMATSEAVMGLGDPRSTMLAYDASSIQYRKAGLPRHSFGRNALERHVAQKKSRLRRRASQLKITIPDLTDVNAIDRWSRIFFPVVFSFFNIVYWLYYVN
gamma-aminobutyric acid type A (GABAA) receptor α1(L264T)β2γ2L, sequence (P18507 40-475 partner): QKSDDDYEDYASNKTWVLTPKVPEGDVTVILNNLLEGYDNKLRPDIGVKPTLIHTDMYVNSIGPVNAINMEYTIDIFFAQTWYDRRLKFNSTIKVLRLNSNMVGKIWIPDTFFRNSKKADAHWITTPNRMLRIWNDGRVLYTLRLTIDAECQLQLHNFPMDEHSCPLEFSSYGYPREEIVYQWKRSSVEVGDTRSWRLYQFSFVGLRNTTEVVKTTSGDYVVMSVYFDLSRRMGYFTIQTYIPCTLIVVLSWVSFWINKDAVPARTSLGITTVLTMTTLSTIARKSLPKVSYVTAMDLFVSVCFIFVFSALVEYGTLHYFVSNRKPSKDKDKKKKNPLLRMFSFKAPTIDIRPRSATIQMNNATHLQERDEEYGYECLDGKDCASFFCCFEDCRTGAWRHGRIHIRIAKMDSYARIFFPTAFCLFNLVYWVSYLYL

Compound | EC50 [µM]
C[C@H](c1ccccc1)n1cncc1C(=O)OCCC(=O)O [MOC-ECA] | 3500 ± 630
COC(=O)CCOC(=O)c1cncn1[C@H](C)c1ccccc1 [MOC-etomidate, methoxycarbonyl etomidate] | 10 ± 2.5
